Experimental data taken from patent US12258345B1, “Pyrrolo[3,2-c]isoquinoline-2,3-dione compounds as CK2 inhibitors” (KING FAISAL UNIVERSITY, priority 2023, dated 2025).

Key:
PC3 (prostate) = test: MTT in vitro cytotoxic activity assay, PC3; assay type: cell-based; conditions: Homo sapiens, 96 h incubation, read-out: Cytotoxicity activity, PC3 (prostate)
Description: (§1) Compounds 1-16 were screened for their in vitro cytotoxic behavior using a 3-(4,5-dimethyl-thiazol-2-yl)-2,5-diphenyltetrazolium bromide (MTT) assay against selected cancer human cell lines consisting of PC3 (prostate), HCT116 (colon), A375 (melanoma), H1299 (lung), MIAPaCa-2 (pancreas), HL60 (leukemia), MCF7 (breast), MDA-MB-231 (breast) (T. Mosmann, J. Immunol. Meth., 1983, 65, 55-63). The cells were cultured at 37° C. in RMPI1640 medium supplemented with 10% fetal bovine serum, 50 IU/mL penicillin, and 50 μg/mL streptomycin in a 5% CO2 incubator. All cells were sub-cultured 3 times/week by trypsinisation. Viable cells were seeded and allowed to adhere for 12 h before a test drug was added in 96-well plates at an initial density of 1.0×10^5 cells/mL. Tumor cell lines were separately exposed to various concentrations of the tested compounds followed by incubation at a temperature of 37° C. during 96 h inside a medium of fresh RMPI 1640. Cells were subsequently incubated at 37° C. using MTT at 0.5 mg/mL for 4 hours. After removal of supernatant, formazan crystals were dissolved in isopropanol and the optical density was measured at 570 nm. CX-4945 was used as a positive control.

HCT116 (colon) = test: MTT in vitro cytotoxic activity assay, HCT116; assay type: cell-based; conditions: Homo sapiens, HCT-116, 96 h incubation, read-out: Cytotoxicity activity, HCT116 (colon)
Description: as §1

A375 (melanoma) = test: MTT in vitro cytotoxic activity assay, A375; assay type: cell-based; conditions: Homo sapiens, A-375, 96 h incubation, read-out: Cytotoxicity activity, A375 (melanoma)
Description: as §1

H1299 (lung) = test: MTT in vitro cytotoxic activity assay, H1299; assay type: cell-based; conditions: Homo sapiens, NCI-H1299, 96 h incubation, read-out: Cytotoxicity activity, H1299 (lung)
Description: as §1

MIAPaCa-2 (pancreas) = test: MTT in vitro cytotoxic activity assay, MIAPaCa-2; assay type: cell-based; conditions: Homo sapiens, MIA PaCa-2, 96 h incubation, read-out: Cytotoxicity activity, MIAPaCa-2 (pancreas)
Description: as §1

HL60 (leukemia) = test: MTT in vitro cytotoxic activity assay, HL60; assay type: cell-based; conditions: Homo sapiens, HL-60, 96 h incubation, read-out: Cytotoxicity activity, HL60 (leukemia)
Description: as §1

MCF7 (breast) = test: MTT in vitro cytotoxic activity assay, MCF7; assay type: cell-based; conditions: Homo sapiens, 96 h incubation, read-out: Cytotoxicity activity, MCF7 (breast)
Description: as §1

MDA-MB-231 (breast) = test: MTT in vitro cytotoxic activity assay, MDA-MB-231; assay type: cell-based; conditions: Homo sapiens, 96 h incubation, read-out: Cytotoxicity activity, MDA-MB-231 (breast)
Description: as §1

[1] = biological target: T1, recombinant human CK2 (RRBB-holoenzyme) (Homo sapiens, UniProt P68400); test: CK2 Kinase Assay (33P-ATP, substrate peptide RRRDDDSDDD); assay type: biochemical; conditions: final ATP concentration 15 μM, 10 min at 30° C.; read-out: protein kinase CK2 activity IC50
T1 construct: purchased Millipore
T1 sequence (P68400 whole entry): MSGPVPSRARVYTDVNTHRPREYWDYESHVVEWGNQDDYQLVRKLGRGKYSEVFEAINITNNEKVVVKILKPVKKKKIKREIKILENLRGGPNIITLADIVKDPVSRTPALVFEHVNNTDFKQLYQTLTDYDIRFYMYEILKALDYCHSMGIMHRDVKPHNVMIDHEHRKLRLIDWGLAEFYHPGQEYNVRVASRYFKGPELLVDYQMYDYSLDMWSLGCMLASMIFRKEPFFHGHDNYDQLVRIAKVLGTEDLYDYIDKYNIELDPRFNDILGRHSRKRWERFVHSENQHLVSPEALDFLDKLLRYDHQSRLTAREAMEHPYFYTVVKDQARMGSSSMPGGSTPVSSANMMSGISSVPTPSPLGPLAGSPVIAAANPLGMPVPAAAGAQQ
T1 sequence (P67870 whole entry partner): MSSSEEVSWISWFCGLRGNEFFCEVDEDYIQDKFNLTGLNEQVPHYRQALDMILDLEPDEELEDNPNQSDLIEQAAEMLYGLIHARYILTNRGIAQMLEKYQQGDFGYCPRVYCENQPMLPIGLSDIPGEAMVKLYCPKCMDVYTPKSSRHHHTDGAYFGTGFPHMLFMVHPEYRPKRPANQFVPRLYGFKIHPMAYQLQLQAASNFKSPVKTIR
Description: CK2 Kinase Assay was conducted using the previously described protocol (Pierre F. et al; J. Med. Chem. 2011, 54, 635-654). The tested compounds in aqueous solution were added at a volume of 10 μL to a reaction mixture comprising 10 μL of assay dilution buffer (ADB; 20 mM MOPS, pH 7.2, 25 mM β-glycerol phosphate, 5 mM EGTA, 1 mM sodium orthovanadate, and 1 mM dithiothreitol), 10 μL of substrate peptide (RRRDDDSDDD, dissolved in ADB at a concentration of 1 mM), 10 μL of recombinant human CK2 (RRBB-holoenzyme, 25 ng dissolved in ADB; Millipore). Reactions were initiated by the addition of 10 μL of ATP solution (90% 75 mMMgCl2, 75 μM ATP (final ATP concentration: 15 μM) dissolved in ADB; 10% [γ-33P] ATP (stock 1 mCi/100 μL; 3000 Ci/mmol (Perkin-Elmer) and maintained for 10 min at 30° C. The reactions were quenched with 100 μL of 0.75% phosphoric acid and then transferred to and filtered through a phosphor cellulose filter plate (Millipore). After washing each well five times with 0.75% phosphoric acid, the plate was dried under vacuum for 5 min and, following the addition of 15 μL of scintillation fluid to each well, the residual radioactivity was measured using a Wallac […] counter. The IC50 values were derived from eight concentrations of test inhibitors.

[2] = test system: various human cancer cell lines; test: MTT in vitro cytotoxic activity assay, panel of human cancer cell lines; assay type: cell-based; conditions: MCF7, MDA-MB-231, H1299, PC3, HCT116, A375, MIAPaCa-2, HL60
Description: as §1

O=C1Nc2c(nc(Nc3cccc(Cl)c3)c3cc(C(=O)O)ccc23)C1=O [Compound 1, 5-((3-chlorophenyl)amino)-2,3-dioxo-2,3-dihydro-1H-pyrrolo[3,2-c]isoquinoline-7-carboxylic acid]
IC50 (PC3 (prostate)): 1100 nM | IC50 (HCT116 (colon)): 1500 nM | IC50 (A375 (melanoma)): 3100 nM | IC50 (H1299 (lung)): 1700 nM | IC50 (MIAPaCa-2 (pancreas)): 1100 nM | IC50 (HL60 (leukemia)): 3900 nM | IC50 (MCF7 (breast)): 5400 nM | IC50 (MDA-MB-231 (breast)): 3800 nM | IC50 [1]: 38 nM | in vitro anti-proliferative / anticancer activity against human cancer cell lines (in words) [2]: promising in vitro anti-proliferative activity
